From patent US11980188B2, “Spiro cyclohexanedione derivates as herbicides” (SYNGENTA PARTICIPATIONS AG, priority 2018, dated 2024)

How the values were obtained:
Experiment in all cases: Glasshouse herbicide test, pre- and post-emergence, percentage damage
Assay type in all cases: in vivo
[1] = tested on: Setaria faberi (SETFA); settings: 250 g/h, evaluated after 13 days, percentage damage on five point scale; for SETFA POST: post-emergence; for SETFA PRE: pre-emergence
Method: (§1) Seeds of a variety of test species are sown in standard soil in pots (Lolium perenne (LOLPE), Setaria faberi (SETFA), Alopecurus myosuroides (ALOMY), Echinochloa crus-galli (ECHCG), Avena fatua (AVEFA)). After cultivation for one day (pre-emergence) or after 8 days cultivation (post-emergence) under controlled conditions in a glasshouse (at 24/16° C., day/night; 14 hours light; 65% humidity), the plants are sprayed with an aqueous spray solution derived from the formulation of the technical active ingredient in acetone/water (50:50) solution containing 0.5% Tween 20 (polyoxyethelyene sorbitan monolaurate, CAS RN 9005-64-5). Compounds are applied at […]. The test plants are then grown in a glasshouse under controlled conditions in a glasshouse (at 24/16° C., day/night; 14 hours light; 65% humidity) and watered twice daily. After 13 days for pre and post-emergence, the test is evaluated for the percentage damage caused to the plant. The biological activities are shown in the following table on a five point scale (5=80-100%; 4=60-79%; 3=40-59%; 2=20-39%; 1=0-19%).

[2] = tested on: Echinochloa crus-galli (ECHCG); settings: 250 g/h, evaluated after 13 days, percentage damage on five point scale; for ECHCG POST: post-emergence; for ECHCG PRE: pre-emergence
Method: as §1

[3] = tested on: Lolium perenne (LOLPE); settings: 250 g/h, evaluated after 13 days, percentage damage on five point scale; for LOLPE POST: post-emergence; for LOLPE PRE: pre-emergence
Method: as §1

[4] = tested on: Alopecurus myosuroides (ALOMY); settings: 250 g/h, evaluated after 13 days, percentage damage on five point scale; for ALOMY POST: post-emergence; for ALOMY PRE: pre-emergence
Method: as §1

[5] = tested on: Avena fatua (AVEFA); settings: 250 g/h, evaluated after 13 days, percentage damage on five point scale; for AVEFA POST: post-emergence; for AVEFA PRE: pre-emergence
Method: as §1

Row | SMILES | SETFA POST [1] | SETFA PRE [1] | ECHCG POST [2] | ECHCG PRE [2] | LOLPE POST [3] | LOLPE PRE [3] | ALOMY POST [4] | ALOMY PRE [4] | AVEFA POST [5] | AVEFA PRE [5]
1 | COc1cc(-c2ccc(F)cc2)cc(C)c1C1C(=O)CC2(CCN(OC)CC2)CC1=O [Compound A9] | 5 (5=80-100%) | 5 (5=80-100%) | 5 (5=80-100%) | 5 (5=80-100%) | 5 (5=80-100%) | 5 (5=80-100%) | 5 (5=80-100%) | 5 (5=80-100%) | 5 (5=80-100%) | 5 (5=80-100%)
2 | Cc1cc(-c2ccc(F)cc2)cc(C)c1C1C(=O)CC2(CCN(C(=O)OC(C)(C)C)CC2)CC1=O [Compound A11] | 5 (5=80-100%) | 5 (5=80-100%) | 5 (5=80-100%) | 5 (5=80-100%) | 5 (5=80-100%) | 5 (5=80-100%) | 5 (5=80-100%) | 5 (5=80-100%) | 4 (4=60-79%) | 4 (4=60-79%)
3 | CC(=O)N1CCC2(CC1)CC(=O)C(c1c(C)cc(-n3cc(Cl)cn3)cc1C)C(=O)C2 [Compound A19] | 5 (5=80-100%) | 3 (3=40-59%) | 4 (4=60-79%) | 1 (1=0-19%) | 5 (5=80-100%) | 4 (4=60-79%) | 5 (5=80-100%) | 2 (2=20-39%) | 5 (5=80-100%) | 5 (5=80-100%)
4 | CC(=O)N1CCC2(CC1)CC(=O)C(c1c(C)cc(-c3ccc(F)cn3)cc1C)C(=O)C2 [Compound A46] | 5 (5=80-100%) | 5 (5=80-100%) | 5 (5=80-100%) | 5 (5=80-100%) | 5 (5=80-100%) | 5 (5=80-100%) | 5 (5=80-100%) | 5 (5=80-100%) | 5 (5=80-100%) | 5 (5=80-100%)
5 | Cc1cc(-c2ncc(F)cn2)cc(C)c1C1C(=O)CC2(CCN(C(=O)NC(=O)c3ccccn3)CC2)CC1=O [Compound A41] | 5 (5=80-100%) | 5 (5=80-100%) | 5 (5=80-100%) | 4 (4=60-79%) | 5 (5=80-100%) | 3 (3=40-59%) | 5 (5=80-100%) | 3 (3=40-59%) | 5 (5=80-100%) | 3 (3=40-59%)
6 | CON1CCC2(CC1)CC(=O)C(c1c(C)cc(-n3cc(Cl)cn3)cc1C)C(=O)C2 [Compound A5] | 5 (5=80-100%) | 5 (5=80-100%) | 5 (5=80-100%) | 5 (5=80-100%) | 5 (5=80-100%) | 5 (5=80-100%) | 5 (5=80-100%) | 5 (5=80-100%) | 5 (5=80-100%) | 5 (5=80-100%)
7 | CCS(=O)(=O)N1CCC2(CC1)CC(=O)C(c1c(C)cc(-c3ccc(F)cc3)cc1C)C(=O)C2 [Compound A53] | 5 (5=80-100%) | 5 (5=80-100%) | 3 (3=40-59%) | 5 (5=80-100%) | 5 (5=80-100%) | 5 (5=80-100%) | – | 5 (5=80-100%) | 5 (5=80-100%) | 4 (4=60-79%)
8 | COc1cc(-c2ccc(C#N)cn2)cc(OC)c1C1C(=O)CC2(CCN(C(C)=O)CC2)CC1=O [Compound A16] | 5 (5=80-100%) | 4 (4=60-79%) | – | 5 (5=80-100%) | 4 (4=60-79%) | 3 (3=40-59%) | 5 (5=80-100%) | 1 (1=0-19%) | 5 (5=80-100%) | 4 (4=60-79%)
9 | COc1cc(-c2ccc(F)cc2)cc(C)c1C1C(=O)CC2(CCN(C(=O)NC(=O)c3ccccn3)CC2)CC1=O [Compound A73] | 5 (5=80-100%) | 5 (5=80-100%) | 5 (5=80-100%) | 4 (4=60-79%) | 5 (5=80-100%) | 1 (1=0-19%) | – | 5 (5=80-100%) | 5 (5=80-100%) | 1 (1=0-19%)
10 | COCC(=O)N1CCC2(CC1)CC(=O)C(c1c(C)cc(-c3ccc(C#N)cn3)cc1C)C(=O)C2 [Compound A25] | 5 (5=80-100%) | 5 (5=80-100%) | 5 (5=80-100%) | 5 (5=80-100%) | 5 (5=80-100%) | 5 (5=80-100%) | 5 (5=80-100%) | 5 (5=80-100%) | 5 (5=80-100%) | 5 (5=80-100%)
11 | Cc1cc(-c2ncc(F)cn2)cc(C)c1C1C(=O)CC2(CCN(C(=O)C(C)(C)C)CC2)CC1=O [Compound A40] | 5 (5=80-100%) | 5 (5=80-100%) | 5 (5=80-100%) | 5 (5=80-100%) | 5 (5=80-100%) | 5 (5=80-100%) | 5 (5=80-100%) | 5 (5=80-100%) | 5 (5=80-100%) | 5 (5=80-100%)
12 | CON1CCC2(CC1)CC(=O)C(c1c(C)cc(-c3ncc(Cl)cn3)cc1C)C(=O)C2 [Compound A1] | 5 (5=80-100%) | 5 (5=80-100%) | 5 (5=80-100%) | 5 (5=80-100%) | 5 (5=80-100%) | 5 (5=80-100%) | 5 (5=80-100%) | 5 (5=80-100%) | 5 (5=80-100%) | 5 (5=80-100%)
13 | Cc1cc(-c2ccc(C#N)cn2)cc(C)c1C1C(=O)CC2(CCN(C(=O)C3CC3)CC2)CC1=O [Compound A28] | 5 (5=80-100%) | 5 (5=80-100%) | 5 (5=80-100%) | 5 (5=80-100%) | 5 (5=80-100%) | 5 (5=80-100%) | 5 (5=80-100%) | 5 (5=80-100%) | 5 (5=80-100%) | 5 (5=80-100%)
14 | COc1cc(-c2ncc(F)cn2)cc(C)c1C1C(=O)CC2(CCN(OC)CC2)CC1=O [Compound A10] | 5 (5=80-100%) | 5 (5=80-100%) | 5 (5=80-100%) | 5 (5=80-100%) | 5 (5=80-100%) | 5 (5=80-100%) | 5 (5=80-100%) | 5 (5=80-100%) | 5 (5=80-100%) | 5 (5=80-100%)
15 | Cc1cc(-c2ccc(C#N)cn2)cc(C)c1C1C(=O)CC2(CCN(C(=O)NC(=O)C(C)(C)C)CC2)CC1=O [Compound A27] | 5 (5=80-100%) | 5 (5=80-100%) | – | 5 (5=80-100%) | 5 (5=80-100%) | 4 (4=60-79%) | 5 (5=80-100%) | 4 (4=60-79%) | 1 (1=0-19%) | 2 (2=20-39%)
